Laboratory results published in publication PMC9521028, “Lengthening the Guanidine–Aryl Linker of Phenylpyrimidinylguanidines Increases Their Potency as Inhibitors of FOXO3-Induced Gene Transcription” (ACS Omega, 2022).
Converted amounts (≈) assume the structure as drawn.

How the values were obtained:
[1] = tested on: FOXO3 binding to the promoter region of DEPP1 in SH-EP/FOXO3 cells; assay: DEPP1-luciferase reporter assay of FOXO3 transcriptional activity; assay type: cell-based; conditions: for potency in blocking FOXO3 binding to the promoter region of DEPP1: 25 and 12.5 μM compound; for potency in blocking FOXO3 binding to the promoter region of DEPP1, compared with 5ca: initial screen, 50 μM compound; for inhibitory potency on target gene activation by FOXO3 (in words): summary of the reporter data, Figures 2, S2, S3
Description: The ability of these compounds to inhibit FOXO3 transcriptional activity was further examined by assessing their effect on FOXO3 binding to the promoter region of decidual protein induced by progesterone 1 (DEPP1) after transfecting a DEPP1-luciferase reporter plasmid into SH-EP neuroblastoma cells stably expressing a 4-hydroxy-tamoxifen (4OHT)-regulated FOXO3(A3)ERtm transgene. […] In parallel, the toxicity of the compounds was tested by assessing their effect on endogenous DEPP1 and actin promoters in SH-EP cells.
Transcriptional activation of the DEPP1 promoter by conditional FOXO3 was assessed after transfection of a DEPP1-luciferase reporter plasmid pGS c10orf10 Prom wt (DEPP1-LUC)[20] into SH-EP/FOXO3 cells using the JetPrime reagent (Polyplus, Berkeley). After 24 h of transfection, mTFP fluorescent protein expression from a cotransfected expression vector was assessed by live cell fluorescence microscopy to verify equal transfection rates before seeding cells into 24-well plates. After 48 h of transfection, the cells were pretreated with indicated concentrations of each compound (30 min) before adding 100 nM 4-hydroxy-tamoxifen (4OHT) for 3 h to activate ectopic FOXO3. Firefly-luciferase was analyzed using the Luciferase Assay System (Promega, Madison). Luminescence intensity was measured in a Hidex Chameleon—Multilabel Microplate Reader (Hidex, Turku, Finland).

[2] = Estimation of compound solubility in water (saturated solution, UV-vis); assay type: physicochemical; conditions: for solubility at 48 h: aqueous buffer, thermodynamic from solid, 20 mM phosphate (pH 6.5) and 50 mM KCl buffer at 23 °C
Description: To estimate the solubility, we prepared saturated solutions of the compounds by adding 5 mg of each selected compound to 700 μL of 20 mM phosphate buffer (pH 6.5) containing 50 mM KCl. After 48 h of gentle agitation at room temperature (RT), the solutions were spun down, and the supernatant was filtered through 0.2 μm of SPARTAN 13/0.2 RC filter units (Merck KgaA, Darmstadt, Germany) and diluted 100–200× in the same phosphate buffer. The diluted solutions were transferred into the quartz cuvette, recording UV–vis absorption spectra in the range from 200 to 600 nm on a UV-1800 UV/visible scanning spectrophotometer (Shimadzu, Kyoto, Japan) at room temperature. The compound concentrations were estimated by the single point calibration using the absorption at wavelengths higher than 240 nm outside of DMSO absorption of 2000× diluted 50 mM DMSO-dissolved stock solution in phosphate buffer.

SMILES	solubility in water (in words) [2]	solubility at 48 h [2] [mM]	potency in blocking FOXO3 binding to the promoter region of DEPP1 [1]	potency in blocking FOXO3 binding to the promoter region of DEPP1, compared with 5ca [1]	inhibitory potency on target gene activation by FOXO3 (in words) [1]
CCCCNc1cc(C)nc(NC(=N)Nc2ccc(OCCC)cc2)n1 [5dc, 1-(4-(Butylamino)-6-methylpyrimidin-2-yl)-3-(4-propoxyphenyl)guanidine]	low solubility	1.7 (≈ 606 µg/mL)	the most potent compounds	more potent than 5ca	slightly lower inhibitory efficacy than 5cj, 5ci, and 5db
Cc1cc(C)nc(NC(=N)NCc2ccccc2)n1 [5cc, 1-Benzyl-3-(4,6-dimethylpyrimidin-2-yl)guanidine]	significantly increased solubility in water	10 (≈ 2550 µg/mL)	–	less potent FOXO3 inhibitors than 5ca	lower ability to inhibit FOXO3
Cc1cc(C)nc(NC(=N)NCc2ccc(C(C)(C)C)cc2)n1 [5cg, 1-(4-(tert-Butyl)benzyl)-3-(4,6-dimethylpyrimidin-2-yl)guanidine]	limited the solubility	0.2 (≈ 62.3 µg/mL)	the most potent compounds	more potent than 5ca	increased FOXO3 inhibition
CCCOc1ccc(NC(=N)Nc2nc(C)cc(O)n2)cc1 [5aa, 1-(4-Hydroxy-6-methylpyrimidin-2-yl)-3-(4-propoxyphenyl)guanidine]	–	0.1 (≈ 30.1 µg/mL)	–	–	–
Cc1cc(C)nc(NC(=N)NCc2ccccc2C)n1 [5cf, 1-(4,6-Dimethylpyrimidin-2-yl)-3-(2-methylbenzyl)guanidine]	–	2 (≈ 539 µg/mL)	–	–	did not increase the inhibitory potency

Continued, in another order:

solubility in water (in words) [2]	solubility at 48 h [2] [mM]	SMILES	potency in blocking FOXO3 binding to the promoter region of DEPP1 [1]	potency in blocking FOXO3 binding to the promoter region of DEPP1, compared with 5ca [1]	inhibitory potency on target gene activation by FOXO3 (in words) [1]
–	4 (≈ 1080 µg/mL)	Cc1cccc(CNC(=N)Nc2nc(C)cc(C)n2)c1 [5ce, 1-(4,6-Dimethylpyrimidin-2-yl)-3-(3-methylbenzyl)guanidine]	–	less potent FOXO3 inhibitors than 5ca	did not increase the inhibitory potency
improved solubility	7 (≈ 1890 µg/mL)	Cc1ccc(CNC(=N)Nc2nc(C)cc(C)n2)cc1 [5cd, 1-(4,6-Dimethylpyrimidin-2-yl)-3-(4-methylbenzyl)guanidine]	–	–	did not increase the inhibitory potency
insufficient solubility in water	4 (≈ 965 µg/mL)	Cc1cc(C)nc(NC(=N)Nc2ccccc2)n1 [5cb, 1-(4,6-Dimethylpyrimidin-2-yl)-3-phenylguanidine]	–	less potent FOXO3 inhibitors than 5ca	lower ability to inhibit FOXO3
sufficient solubility in water	6 (≈ 1640 µg/mL)	Cc1cc(C)nc(NC(=N)NCc2ccc(F)cc2)n1 [5ch, 1-(4,6-Dimethylpyrimidin-2-yl)-3-(4-fluorobenzyl)guanidine]	–	less potent FOXO3 inhibitors than 5ca	did not increase the inhibitory potency
–	20 (≈ 6400 µg/mL)	CCCOc1ccc(NC(=N)Nc2nc(C)cc(Cl)n2)cc1 [5ba, 1-(4-Chloro-6-methylpyrimidin-2-yl)-3-(4-propoxyphenyl)guanidine]	–	more potent than 5ca	–
